Laboratory results as given in PubChem BioAssay (NCI).
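Values below derive from 48-hour exposures of cells grown in 96-well plates, with endpoints linearly interpolated between the two concentrations bracketing the appropriate inhibition level. At the GI50, growth is halved. The concentration for full growth arrest is given as TGI.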

Experiments:
Experiment in all cases: inhibition of tumour cell growth, NCI panel, 48 h
HCT-116 colon = tested on: HCT-116 colon
OVCAR-3 ovarian = tested on: OVCAR-3 ovarian
SK-MEL-2 melanoma = tested on: SK-MEL-2 melanoma
HOP-62 NSCLC = tested on: HOP-62 NSCLC
T-47D breast = tested on: T-47D breast
CCRF-CEM leukemia = tested on: CCRF-CEM leukemia
MDA-MB-435 = tested on: MDA-MB-435
SK-MEL-28 melanoma = tested on: SK-MEL-28 melanoma
HCC-2998 colon = tested on: HCC-2998 colon
TK-10 renal = tested on: TK-10 renal
SF-268 CNS = tested on: SF-268 CNS
MOLT-4 leukemia = tested on: MOLT-4 leukemia
KM12 colon = tested on: KM12 colon
UACC-62 melanoma = tested on: UACC-62 melanoma
IGROV1 ovarian = tested on: IGROV1 ovarian
CAKI-1 renal = tested on: CAKI-1 renal
DU-145 prostate = tested on: DU-145 prostate
OVCAR-4 ovarian = tested on: OVCAR-4 ovarian
SF-539 CNS = tested on: SF-539 CNS
SK-OV-3 ovarian = tested on: SK-OV-3 ovarian
SNB-75 CNS = tested on: SNB-75 CNS
MALME-3M melanoma = tested on: MALME-3M melanoma
MCF7 breast = tested on: MCF7 breast
K-562 leukemia = tested on: K-562 leukemia
SW-620 colon = tested on: SW-620 colon
PC-3 prostate = tested on: PC-3 prostate
OVCAR-5 ovarian = tested on: OVCAR-5 ovarian
NCI-H522 lung = tested on: NCI-H522 lung
SF-295 CNS = tested on: SF-295 CNS
NCI/ADR-RES ovarian = tested on: NCI/ADR-RES ovarian
RPMI-8226 leukemia = tested on: RPMI-8226 leukemia
U251 CNS = tested on: U251 CNS
RXF 393 renal = tested on: RXF 393 renal
HT29 colon = tested on: HT29 colon
NCI-H460 lung = tested on: NCI-H460 lung
HCT-15 colon = tested on: HCT-15 colon
UACC-257 melanoma = tested on: UACC-257 melanoma
NCI-H226 lung = tested on: NCI-H226 lung
HS 578T breast = tested on: HS 578T breast
SK-MEL-5 melanoma = tested on: SK-MEL-5 melanoma
HL-60(TB) leukemia = tested on: HL-60(TB) leukemia
A498 renal = tested on: A498 renal
OVCAR-8 ovarian = tested on: OVCAR-8 ovarian
BT-549 breast = tested on: BT-549 breast
MDA-MB-231 breast = tested on: MDA-MB-231 breast
SNB-19 CNS = tested on: SNB-19 CNS
UO-31 renal = tested on: UO-31 renal
NCI-H23 lung = tested on: NCI-H23 lung
M14 melanoma = tested on: M14 melanoma
786-0 renal = tested on: 786-0 renal
SR leukemia = tested on: SR leukemia
LOX IMVI melanoma = tested on: LOX IMVI melanoma
A549 NSCLC = tested on: A549 NSCLC
SN12C renal = tested on: SN12C renal
ACHN renal = tested on: ACHN renal
COLO 205 colon = tested on: COLO 205 colon

SMILES: CC(C)=CC(=O)OC1C(CO)OC(Oc2cc(O)c3c(=O)cc(-c4ccc(O)c(O)c4)oc3c2)C(OC2OC(C)C(O)C(O)C2O)C1O (configuration not stated)
- GI50 (HCT-116 colon): > 100 µM
- TGI (HCT-116 colon): > 100 µM
- GI50 (OVCAR-3 ovarian): > 100 µM
- TGI (OVCAR-3 ovarian): > 100 µM
- GI50 (SK-MEL-2 melanoma): > 100 µM
- TGI (SK-MEL-2 melanoma): > 100 µM
- GI50 (HOP-62 NSCLC): > 100 µM
- TGI (HOP-62 NSCLC): > 100 µM
- GI50 (T-47D breast): > 100 µM
- TGI (T-47D breast): > 100 µM
- GI50 (CCRF-CEM leukemia): > 100 µM
- TGI (CCRF-CEM leukemia): > 100 µM
- GI50 (MDA-MB-435): > 100 µM
- TGI (MDA-MB-435): > 100 µM
- GI50 (SK-MEL-28 melanoma): > 100 µM
- TGI (SK-MEL-28 melanoma): > 100 µM
- GI50 (HCC-2998 colon): > 100 µM
- TGI (HCC-2998 colon): > 100 µM
- GI50 (TK-10 renal): > 100 µM
- TGI (TK-10 renal): > 100 µM
- GI50 (SF-268 CNS): > 100 µM
- TGI (SF-268 CNS): > 100 µM
- GI50 (MOLT-4 leukemia): > 100 µM
- TGI (MOLT-4 leukemia): > 100 µM
- GI50 (KM12 colon): > 100 µM
- TGI (KM12 colon): > 100 µM
- GI50 (UACC-62 melanoma): > 100 µM
- TGI (UACC-62 melanoma): > 100 µM
- GI50 (IGROV1 ovarian): > 100 µM
- TGI (IGROV1 ovarian): > 100 µM
- GI50 (CAKI-1 renal): > 100 µM
- TGI (CAKI-1 renal): > 100 µM
- GI50 (DU-145 prostate): > 100 µM
- TGI (DU-145 prostate): > 100 µM
- GI50 (OVCAR-4 ovarian): > 100 µM
- TGI (OVCAR-4 ovarian): > 100 µM
- GI50 (SF-539 CNS): > 100 µM
- TGI (SF-539 CNS): > 100 µM
- GI50 (SK-OV-3 ovarian): > 100 µM
- TGI (SK-OV-3 ovarian): > 100 µM
- GI50 (SNB-75 CNS): > 100 µM
- TGI (SNB-75 CNS): > 100 µM
- GI50 (MALME-3M melanoma): > 100 µM
- TGI (MALME-3M melanoma): > 100 µM
- GI50 (MCF7 breast): > 100 µM
- TGI (MCF7 breast): > 100 µM
- GI50 (K-562 leukemia): > 100 µM
- TGI (K-562 leukemia): > 100 µM
- GI50 (SW-620 colon): > 100 µM
- TGI (SW-620 colon): > 100 µM
- GI50 (PC-3 prostate): > 100 µM
- TGI (PC-3 prostate): > 100 µM
- GI50 (OVCAR-5 ovarian): > 100 µM
- TGI (OVCAR-5 ovarian): > 100 µM
- GI50 (NCI-H522 lung): > 100 µM
- TGI (NCI-H522 lung): > 100 µM
- GI50 (SF-295 CNS): > 100 µM
- TGI (SF-295 CNS): > 100 µM
- GI50 (NCI/ADR-RES ovarian): > 100 µM
- TGI (NCI/ADR-RES ovarian): > 100 µM
- GI50 (RPMI-8226 leukemia): 85.6 µM
- TGI (RPMI-8226 leukemia): > 100 µM
- GI50 (U251 CNS): > 100 µM
- TGI (U251 CNS): > 100 µM
- GI50 (RXF 393 renal): > 100 µM
- TGI (RXF 393 renal): > 100 µM
- GI50 (HT29 colon): > 100 µM
- TGI (HT29 colon): > 100 µM
- GI50 (NCI-H460 lung): > 100 µM
- TGI (NCI-H460 lung): > 100 µM
- GI50 (HCT-15 colon): > 100 µM
- TGI (HCT-15 colon): > 100 µM
- GI50 (UACC-257 melanoma): > 100 µM
- TGI (UACC-257 melanoma): > 100 µM
- GI50 (NCI-H226 lung): > 100 µM
- TGI (NCI-H226 lung): > 100 µM
- GI50 (HS 578T breast): > 100 µM
- TGI (HS 578T breast): > 100 µM
- GI50 (SK-MEL-5 melanoma): > 100 µM
- TGI (SK-MEL-5 melanoma): > 100 µM
- GI50 (HL-60(TB) leukemia): > 100 µM
- TGI (HL-60(TB) leukemia): > 100 µM
- GI50 (A498 renal): > 100 µM
- TGI (A498 renal): > 100 µM
- GI50 (OVCAR-8 ovarian): > 100 µM
- TGI (OVCAR-8 ovarian): > 100 µM
- GI50 (BT-549 breast): > 100 µM
- TGI (BT-549 breast): > 100 µM
- GI50 (MDA-MB-231 breast): > 100 µM
- TGI (MDA-MB-231 breast): > 100 µM
- GI50 (SNB-19 CNS): > 100 µM
- TGI (SNB-19 CNS): > 100 µM
- GI50 (UO-31 renal): > 100 µM
- TGI (UO-31 renal): > 100 µM
- GI50 (NCI-H23 lung): > 100 µM
- TGI (NCI-H23 lung): > 100 µM
- GI50 (M14 melanoma): > 100 µM
- TGI (M14 melanoma): > 100 µM
- GI50 (786-0 renal): > 100 µM
- TGI (786-0 renal): > 100 µM
- GI50 (SR leukemia): 50 µM
- TGI (SR leukemia): 98.8 µM
- GI50 (LOX IMVI melanoma): > 100 µM
- TGI (LOX IMVI melanoma): > 100 µM
- GI50 (A549 NSCLC): > 100 µM
- TGI (A549 NSCLC): > 100 µM
- GI50 (SN12C renal): > 100 µM
- TGI (SN12C renal): > 100 µM
- GI50 (ACHN renal): > 100 µM
- TGI (ACHN renal): > 100 µM
- GI50 (COLO 205 colon): > 100 µM
- TGI (COLO 205 colon): > 100 µM
